What all share (format): functional
Test [1] has as its system Rattus norvegicus. The experiment in a line: Antidiabetic activity against glucose loaded Wistar rat assessed as serum glucose level at 10 mg/kg, po by oral glucose tolerance test.
The test system of test [2] is Rattus norvegicus. Briefly: Antidiabetic activity against glucose loaded Wistar rat assessed as serum glucose level at 10 mg/kg, po after 60 mins by oral glucose tolerance test.
The subject of test [3] is Rattus norvegicus. Briefly: Antidiabetic activity against glucose loaded Wistar rat assessed as serum glucose level at 10 mg/kg, po after 30 mins by oral glucose tolerance test.
Test [4] concerns Rattus norvegicus. Briefly: Antidiabetic activity against glucose loaded Wistar rat assessed as serum glucose level at 10 mg/kg, po after 15 mins by oral glucose tolerance test.

For `Cc1cnc(C(=O)NCCc2ccc(S(=O)(=O)NC(=O)NC3CCCCC3)cc2)cn1` [GLIPIZIDE], the Activity with Rattus norvegicus [1] turned out to be 120 mg/dL; in the test on Rattus norvegicus [2], 123 mg/dL; in the test with Rattus norvegicus [3], 143 mg/dL; in the test with Rattus norvegicus [4], 160 mg/dL.

Values taken from ChEMBL document CHEMBL1155289, “Stimulatory effect of apigenin-6-C-beta-L-fucopyranoside on insulin secretion and glycogen synthesis” (2009).
